{"source": "patent US8512941B2", "about": "“Biological material and methods and solutions for preservation thereof” (Core Dynamics Limited, priority 2004, dated 2013)", "key": {"RBC": {"test_system": "RBC", "details": "introduction of trehalose into fresh RBC, not frozen or freeze-dried; Satpathy et al. 2004; cited from earlier work"}, "Red blood cells (RBC)": {"test_system": "Red blood cells (RBC)", "experiment": "RBC survival (cell count) after freezing/thawing or lyophilizing/rehydrating at 2.5 ml", "assay_type": "cell-based", "details": "thawed, not lyophilized", "experimental": "Red blood cells (RBC) were separated from whole blood received from the Israeli Blood Bank. The blood was centrifuged for 10 minutes at 1500 g and the plasma was discarded. […] Afterwards the supernatant was discarded, and an equal volume of cryopreservation solution selected from the solutions in Table I was added to the packed RBC. Different volumes (2.5-50 ml) of the RBC suspension were transferred to a 16-25 mm diameter glass test tube ([…], Israel). The experiment of freezing 200 ml of RBC suspension was done in a 2000 ml freezing bag (Baxter-Fenwal, USA). Samples were then either frozen and thawed in a water bath at 37° C. or lyophilized and rehydrated with double distilled water (DDW) at 37° C. Glass test tubes containing RBC were frozen in a modified MTG freezing apparatus, as described in WO 03/020874 (manufactured by IMT, Israel). The thermal gradient in the cooling unit was set to 5.5° C./mm or 10.5° C./mm or 15.5° C./mm (as detailed below) with final temperatures of -50° C., -100° C. or -150° C. […] During freezing the test tubes that contained only 2.5 ml samples were rotated at a rate of 56 rpm. Subsequent to freezing, biological material was taken from each test tube to test for cell viability. Lyophilization was performed in a commercial lyophilizer (Labconco, USA) with a condenser temperature of -82° C. for 72 hours. The biological material was is rehydrated by adding DDW to reach the sample's original volume. Frozen (but not lyophilized) material was thawed by immersion in a water bath at 37° C. for until it melted. Melting was observed visually. Cells were counted using the […] 60 cell counter (ABX, France), in accordance with the manufacturer's manual. This device provides a complete cell count (CBC) that includes parameters such as: cell number, hematocrit, mean cell volume, hemoglobin, etc. […] In these experiments the cell suspension volume was 2.5 ml."}}}
{"smiles": "OC[C@H]1O[C@H](O[C@H]2O[C@H](CO)[C@@H](O)[C@H](O)[C@H]2O)[C@H](O)[C@@H](O)[C@@H]1O", "note": "[Trehalose, reference compound]", "values": [{"measurement": "hemolysis", "setting": "RBC", "result": "causes significant hemolysis"}, {"measurement": "RBC survival, 1A Thawed", "setting": "Red blood cells (RBC); frozen at 1,000° C./min, percentage of total fresh cells counted", "result": 89.04, "unit": "%"}, {"measurement": "RBC survival, 2A Thawed", "setting": "Red blood cells (RBC); frozen at 2,000° C./min", "result": 93.24, "unit": "%"}]}
